Experimental data published in patent US20220306587A1, “COMPOUNDS AND USE THEREOF FOR THE TREATMENT OF INFECTIOUS DISEASES AND CANCER” (AC BIOSCIENCE SA, priority 2019, published 2022).

Tests used:
[1] = molecular target: T1, S1P lyase (Mus musculus, UniProt Q8R0X7); settings: administered to mice; cited from earlier work
T1 construct: host or cells: mice (in vivo)
T1 sequence (Q8R0X7 1-568): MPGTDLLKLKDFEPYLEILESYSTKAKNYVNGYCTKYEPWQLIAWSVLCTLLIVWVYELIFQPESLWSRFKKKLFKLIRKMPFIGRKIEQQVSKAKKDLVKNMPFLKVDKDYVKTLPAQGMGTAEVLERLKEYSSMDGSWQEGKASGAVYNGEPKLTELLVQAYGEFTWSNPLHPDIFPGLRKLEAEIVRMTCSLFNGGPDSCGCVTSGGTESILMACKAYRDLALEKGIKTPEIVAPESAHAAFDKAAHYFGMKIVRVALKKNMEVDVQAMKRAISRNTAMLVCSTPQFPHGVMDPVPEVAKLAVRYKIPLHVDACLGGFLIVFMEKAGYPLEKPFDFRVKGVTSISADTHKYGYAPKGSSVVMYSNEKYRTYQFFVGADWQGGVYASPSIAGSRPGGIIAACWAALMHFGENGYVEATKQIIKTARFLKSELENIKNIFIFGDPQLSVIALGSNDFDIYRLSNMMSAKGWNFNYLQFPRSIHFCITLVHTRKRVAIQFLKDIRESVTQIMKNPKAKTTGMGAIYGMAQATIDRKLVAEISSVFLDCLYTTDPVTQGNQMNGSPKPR

[2] = molecular target: T2, recombinant human Pyridoxal kinase (PDXK) (Homo sapiens, UniProt O00764); experiment: In vitro phosphorylation by recombinant human pyridoxal kinase (ADP formation, ADPglo luminescence); format: biochemical; settings: 200 μM compound, 10 μg/ml rhPDXK, 1 mM ATP, 1 hour at 37° C.; FIG. 2
T2 sequence (O00764 1-312): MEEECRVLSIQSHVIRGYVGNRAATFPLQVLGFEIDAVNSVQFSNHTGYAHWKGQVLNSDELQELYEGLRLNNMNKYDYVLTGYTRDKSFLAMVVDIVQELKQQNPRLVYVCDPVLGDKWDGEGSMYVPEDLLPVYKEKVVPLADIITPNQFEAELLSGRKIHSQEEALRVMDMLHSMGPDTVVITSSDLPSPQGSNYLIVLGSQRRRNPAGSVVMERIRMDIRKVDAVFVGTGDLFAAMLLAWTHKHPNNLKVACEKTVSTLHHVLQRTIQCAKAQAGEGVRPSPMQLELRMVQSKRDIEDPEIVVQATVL
Protocol: ACB1906, A6770, 4-DOP (200 μM) and pyridoxal HCL (1 mM) were incubated with 10 μg/ml rhPDXK for 1 hour at 37° C. in the presence of 1 mM ATP containing—10 mM HEPES buffer with 0.05% Triton X-100, 0.01% Plurogenic F127, 25 μM Na3VO4 and 250 μM MgCl2. ADP formation was measured using the luminescence-based ADPglo kit from Promega. Statistical significance determined by Anova. *denotes p<0.05.
ACB1906's ability to be phosphorylated by recombinant human Pyridoxal kinase (PDXK) in vitro was compared to the structurally similar known imidazole S1PL inhibitor A6770, the PDXK and S1PL non-specific inhibitor 4-deoxypyridoxine (4-DOP) and the natural pyridoxal ligand. […] Increased phosphorylation of thiazole compounds confers an advantage in therapeutic applications as this would be a limiting step for its ability to effect a therapeutically relevant modulation in S1P levels.

[3] = molecular target: T2, recombinant human Pyridoxal kinase (PDXK); settings: already reported; cited from earlier work

CC(=O)c1nc([C@@H](O)[C@H](O)[C@H](O)CO)c[nH]1 [THI, 1-(4-((1R,2S,3R)-1,2,3,4-Tetrahydroxybutyl)-1H-imidazol-2-yl)ethan-1-one]
S1P lyase activity [1]: inhibits S1P lyase activity

CC(=O)c1nc(CO)cs1 [Compound 6]
ability to be phosphorylated (ADP formation) in comparison to A6770 [2]: ~2 fold

CC(=O)c1nc(CO)c[nH]1 [Compound A6770, 1-(4-(Hydroxymethyl)-1H-imidazol-2-yl)ethan-1-one]
phosphorylation by PDXK to A6770-P [3]: reported to phosphorylate
